In ChEMBL document CHEMBL1201862, “PubChem BioAssay data set” (2004):
Calls of active or inactive are those of the source. Rule as the data show it, for most assays here: actives have a measured EC50 and inactives only a lower limit.

Assays:
[1] = viability of HCT116 lacking mutant beta-catenin – cell-based, human colon tumor, dose response (AID 1045); type: functional;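 also: HCT116 colon tumor cells with beta catenin knocked out; cells exposed to compound for 60 hours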
cells = type: functional
[2] = THP-1 cell cytotoxicity, dose response, cytotoxicity control for non-replicating M. tuberculosis project (AID 489025); type: functional
Vero = assay: cells; type: functional; conditions: Chlorocebus sabaeus
[3] = Luminescence Cell-Based Dose Confirmation HTS to Identify Inhibitors of Platelet Dense Granule Release. [Related pubchem assays: 1663 (Primary HTS), 1678 (Summary of Project)]; type: functional
[4] = target: T1, Replicative DNA helicase DnaB (Mycobacterium tuberculosis, UniProt P9WMR3); assay: DnaB intein splicing inhibitors, dose response, biochemical, cell-free fluorescence (AID 449749); type: functional
T1 sequence (P9WMR3 whole entry): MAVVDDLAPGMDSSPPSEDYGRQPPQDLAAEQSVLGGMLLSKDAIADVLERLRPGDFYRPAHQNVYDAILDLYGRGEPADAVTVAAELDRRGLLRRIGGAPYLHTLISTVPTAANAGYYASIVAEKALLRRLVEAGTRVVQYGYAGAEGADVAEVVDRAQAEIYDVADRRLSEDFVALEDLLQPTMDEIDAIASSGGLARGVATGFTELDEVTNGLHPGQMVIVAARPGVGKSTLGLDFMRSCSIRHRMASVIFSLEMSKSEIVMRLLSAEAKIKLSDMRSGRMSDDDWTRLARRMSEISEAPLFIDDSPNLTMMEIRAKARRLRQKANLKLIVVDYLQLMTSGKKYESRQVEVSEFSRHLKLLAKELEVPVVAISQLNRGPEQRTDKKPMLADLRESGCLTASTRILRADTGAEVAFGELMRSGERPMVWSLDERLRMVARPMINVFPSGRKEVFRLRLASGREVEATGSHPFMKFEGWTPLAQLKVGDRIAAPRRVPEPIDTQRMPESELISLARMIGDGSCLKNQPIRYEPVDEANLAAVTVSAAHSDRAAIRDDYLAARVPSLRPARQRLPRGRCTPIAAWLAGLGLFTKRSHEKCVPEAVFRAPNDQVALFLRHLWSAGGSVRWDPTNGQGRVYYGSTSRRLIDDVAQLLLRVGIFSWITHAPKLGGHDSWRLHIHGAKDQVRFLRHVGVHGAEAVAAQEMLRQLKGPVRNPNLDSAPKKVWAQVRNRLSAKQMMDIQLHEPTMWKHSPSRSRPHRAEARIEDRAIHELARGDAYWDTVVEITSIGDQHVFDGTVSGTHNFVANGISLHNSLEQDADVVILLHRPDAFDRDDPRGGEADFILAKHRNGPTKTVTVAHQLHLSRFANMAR

Protein RecA = target: T2, Protein RecA (Mycobacterium tuberculosis, UniProt P9WHJ3); assay: Fluorescence Cell-Free Homogeneous Dose Retest to Identify Inhibitors of RecA-Intein Splicing Activity. [Related pubchem assays (depositor defined):AID2097, AID2223, AID489010, AID492950]; type: functional
T2 sequence (P9WHJ3 whole entry): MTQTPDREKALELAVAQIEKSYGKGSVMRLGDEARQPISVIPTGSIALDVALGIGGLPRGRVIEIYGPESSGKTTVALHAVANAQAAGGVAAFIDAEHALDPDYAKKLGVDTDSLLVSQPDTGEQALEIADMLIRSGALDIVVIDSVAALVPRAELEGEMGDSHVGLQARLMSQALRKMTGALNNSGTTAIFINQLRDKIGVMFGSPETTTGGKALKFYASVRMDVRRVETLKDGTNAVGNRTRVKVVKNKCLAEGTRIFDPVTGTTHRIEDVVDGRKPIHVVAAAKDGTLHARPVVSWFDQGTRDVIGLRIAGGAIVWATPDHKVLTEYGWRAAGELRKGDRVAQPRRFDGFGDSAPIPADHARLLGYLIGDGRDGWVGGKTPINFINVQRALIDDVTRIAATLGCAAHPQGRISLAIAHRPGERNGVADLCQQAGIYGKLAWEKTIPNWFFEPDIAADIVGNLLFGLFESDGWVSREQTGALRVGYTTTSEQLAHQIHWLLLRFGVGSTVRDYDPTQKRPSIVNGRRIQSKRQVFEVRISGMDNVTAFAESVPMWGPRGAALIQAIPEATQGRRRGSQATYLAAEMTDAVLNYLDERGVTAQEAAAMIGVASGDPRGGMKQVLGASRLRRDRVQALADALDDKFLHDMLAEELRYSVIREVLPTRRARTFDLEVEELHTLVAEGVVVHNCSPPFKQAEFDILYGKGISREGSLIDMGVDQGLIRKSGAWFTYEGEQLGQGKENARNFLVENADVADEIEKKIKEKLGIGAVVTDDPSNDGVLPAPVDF

[5] = viability loss of HPDE-C7K cells – cell-based, fluorescence, HTS, primary screen (AID 431); type: functional; conditions: Homo sapiens
[6] = HPDE-C7 pancreatic duct cell viability loss – fluorescence, HTS (AID 430); type: functional, cell-based; conditions: Homo sapiens
[7] = target: Luciferin 4-monooxygenase (Photinus pyralis, UniProt P08659); assay: inhibition of purified Photinus pyralis luciferase – biochemical, luminescence, dose response (AID 1891)
[8] = viability of PTEN-deleted HCT116 cells – cell-based, HCT116 PTEN knockout, dose response (AID 1047); type: functional;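 also: HCT116 colon tumor cells with PTEN knocked out; cells exposed to compound for 60 hours before readout; potency for loss of cell viability measured by luminescence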
[9] = Vero E6 cell cytotoxicity, dose response, cytotoxicity control for non-replicating M. tuberculosis project, secondary assay (AID 492998); type: functional, VeroE6; conditions: Vero C1008
[10] = HEK-293T cell viability reduction – luminescence, B-cell screen hits, cytotoxicity control for BCR NF-kB inhibitor project, dose response (AID 489021); type: functional, cell-based;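 also: HEK-293T cells carrying an NF-kB luciferase reporter; cells exposed to compound for about 14 hours before viability readout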
[11] = luciferase reporter signal suppression in cells – H4 neuroglioma cells, luminescence, dose response (AID 1990); type: functional, cell-based
[12] = Luminescence Cell-Based Dose Response HTS to Identify Inhibitors of 5'UTR Stem-Loop Driven Prion Protein mRNA Translation in H4 Neuroglioblastoma Cells. [Related pubchem assays: 1827 (Project Summary), 1813 (Primary HTS)]; type: functional
[13] = target: T3, Zinc finger protein mex-5 (Caenorhabditis elegans, UniProt Q9XUB2); assay: potency of MEX-5 RNA-binding blockers – biochemical, C. elegans, fluorescence polarization, dose response (AID 1960)
T3 sequence (Q9XUB2 whole entry): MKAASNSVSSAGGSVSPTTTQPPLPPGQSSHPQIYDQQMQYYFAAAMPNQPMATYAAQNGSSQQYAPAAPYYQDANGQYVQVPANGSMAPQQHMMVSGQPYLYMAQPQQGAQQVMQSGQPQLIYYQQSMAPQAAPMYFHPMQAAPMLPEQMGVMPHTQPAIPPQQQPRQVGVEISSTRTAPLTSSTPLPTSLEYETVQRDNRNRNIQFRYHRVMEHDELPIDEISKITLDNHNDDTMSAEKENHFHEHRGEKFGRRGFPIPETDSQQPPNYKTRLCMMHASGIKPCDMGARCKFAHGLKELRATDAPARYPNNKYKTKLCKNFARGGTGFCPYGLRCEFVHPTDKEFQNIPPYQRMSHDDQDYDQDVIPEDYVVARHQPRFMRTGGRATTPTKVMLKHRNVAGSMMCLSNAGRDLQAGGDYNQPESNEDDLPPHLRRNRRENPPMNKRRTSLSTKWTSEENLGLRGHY

[14] = DRD fibroblast viability loss – cell-based, non-viral oncogenic, luminescence, dose response (AID 1934); type: functional; conditions: Homo sapiens
BJ [15] = assay: BJ-TERT fibroblast viability loss – cell-based, RAS-independent, luminescence, dose response (AID 1933); type: functional; conditions: Homo sapiens
BJ [16] = assay: BJ-TERT-LT-ST fibroblast viability loss – cell-based, RAS-independent, luminescence, dose response (AID 1935); type: functional; conditions: Homo sapiens;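 also: BJ fibroblasts immortalized with TERT plus LT and ST oncogenes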
[17] = target: T4, RNA-binding protein pos-1 (Caenorhabditis elegans, UniProt G5EF15); assay: disruptors of C. elegans POS-1 RNA interaction – biochemical, fluorescence polarization, dose response (AID 1964);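 also: purified POS-1 fused to maltose binding protein made in E. coli; potency of compounds blocking POS-1 binding to fluorescent RNA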
T4 sequence (G5EF15 whole entry): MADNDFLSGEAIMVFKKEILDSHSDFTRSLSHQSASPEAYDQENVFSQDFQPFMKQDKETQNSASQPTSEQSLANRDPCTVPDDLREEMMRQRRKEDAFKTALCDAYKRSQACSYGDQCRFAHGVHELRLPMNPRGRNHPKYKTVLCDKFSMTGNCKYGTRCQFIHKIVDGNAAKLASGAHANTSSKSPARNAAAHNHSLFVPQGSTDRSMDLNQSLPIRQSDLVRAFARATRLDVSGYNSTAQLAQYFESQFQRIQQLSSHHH

BJ [18] = assay: growth inhibition of engineered Ras-driven BJ cells – cell-based, alamar blue fluorescence, cherrypicked samples, dose response (AID 2631); type: functional; conditions: Homo sapiens;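 also: confirmatory dose-response assay in RAS-dependent BJ fibroblasts engineered with TERT, LT and ST, with cytotoxicity read by fluorescence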
BJ [19] = assay: cells; type: functional, cell-based; conditions: Homo sapiens
Procathepsin L = Procathepsin L (Homo sapiens, UniProt P07711)
Aspartyl aminopeptidase = target: T5, Aspartyl aminopeptidase (Plasmodium falciparum 3D7, UniProt Q8I2J3)
T5 sequence (Q8I2J3 whole entry): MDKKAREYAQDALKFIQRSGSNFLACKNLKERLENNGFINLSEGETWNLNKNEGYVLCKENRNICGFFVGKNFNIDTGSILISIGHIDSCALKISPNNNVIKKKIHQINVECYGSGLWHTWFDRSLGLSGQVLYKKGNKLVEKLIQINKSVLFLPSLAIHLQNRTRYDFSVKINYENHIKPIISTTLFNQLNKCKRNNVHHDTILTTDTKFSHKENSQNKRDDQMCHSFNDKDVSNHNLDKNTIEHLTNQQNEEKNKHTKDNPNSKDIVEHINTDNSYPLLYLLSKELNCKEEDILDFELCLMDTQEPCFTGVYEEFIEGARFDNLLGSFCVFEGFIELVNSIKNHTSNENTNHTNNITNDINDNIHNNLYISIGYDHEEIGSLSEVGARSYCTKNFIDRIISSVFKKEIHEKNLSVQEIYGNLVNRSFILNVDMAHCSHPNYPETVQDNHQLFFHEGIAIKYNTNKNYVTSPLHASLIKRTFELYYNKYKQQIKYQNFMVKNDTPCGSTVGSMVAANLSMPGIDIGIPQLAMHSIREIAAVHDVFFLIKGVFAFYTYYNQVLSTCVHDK

Chain of Procathepsin L (P07711 whole entry): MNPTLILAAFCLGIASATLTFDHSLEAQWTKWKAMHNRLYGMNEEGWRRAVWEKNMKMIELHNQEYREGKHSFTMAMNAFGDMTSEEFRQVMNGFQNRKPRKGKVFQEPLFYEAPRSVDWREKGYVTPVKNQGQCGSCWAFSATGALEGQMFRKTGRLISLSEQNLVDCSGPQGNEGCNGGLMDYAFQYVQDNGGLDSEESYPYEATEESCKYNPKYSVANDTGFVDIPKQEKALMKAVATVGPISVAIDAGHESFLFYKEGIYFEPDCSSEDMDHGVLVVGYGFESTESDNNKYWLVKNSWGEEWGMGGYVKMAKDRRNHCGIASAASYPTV
Chain of Luciferin 4-monooxygenase (P08659 whole entry): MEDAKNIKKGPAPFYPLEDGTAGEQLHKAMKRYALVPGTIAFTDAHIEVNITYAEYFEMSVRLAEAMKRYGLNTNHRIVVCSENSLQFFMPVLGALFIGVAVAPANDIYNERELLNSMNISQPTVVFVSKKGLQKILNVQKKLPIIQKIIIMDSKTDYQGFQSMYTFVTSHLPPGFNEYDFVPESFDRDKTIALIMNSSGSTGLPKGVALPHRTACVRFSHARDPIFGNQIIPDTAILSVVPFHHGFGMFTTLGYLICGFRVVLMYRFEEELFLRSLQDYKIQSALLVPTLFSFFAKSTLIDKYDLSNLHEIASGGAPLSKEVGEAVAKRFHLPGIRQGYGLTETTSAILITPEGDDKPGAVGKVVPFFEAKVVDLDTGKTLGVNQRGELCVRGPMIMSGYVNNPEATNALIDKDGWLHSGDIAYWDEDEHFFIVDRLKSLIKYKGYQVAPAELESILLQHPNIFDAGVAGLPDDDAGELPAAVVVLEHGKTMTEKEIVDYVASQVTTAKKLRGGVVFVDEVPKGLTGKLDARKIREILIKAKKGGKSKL

Cc1cccc(OCCN2CSC(=S)N(C)C2)c1
EC50 [1]: 4.21 µM (active) | IC50 (cells): 10.4 µM (active) | CC50 [2]: 11.8 µM (active) | CC50 (Vero): 7.62 µM (active) | EC50 [3]: > 112 µM (not active) | AC50 [4]: 14.7 µM (active) | EC50 (Protein RecA): 12.5 µM (active) | EC50 [5]: 6.24 µM (active) | EC50 [6]: 6.23 µM (active) | EC50 [7]: > 112 µM (not active) | EC50 [8]: 7.66 µM (active) | CC50 [9]: 6.85 µM (active)

Cc1nc2cc(-c3ccc(Cl)cc3)nn2c(C)c1CCC(=O)NC(C)c1ccc2c(c1)OCCO2 (stereo not given)
IC50 [10]: > 80 µM (inactive) | EC50 [11]: < 0.1 µM (active) | EC50 [12]: 11.6 µM (active)

CCCCc1ccc(Nc2nc(O)cc(CCC)n2)cc1
EC50 [5]: 6.75 µM (active) | EC50 [6]: 10.8 µM (active)

Cc1ccc(-c2nn3c(C)nnc3c3ccccc23)cc1S(=O)(=O)N1CCN(CCO)CC1
IC50 [10]: > 80 µM (inactive)

CCc1ccc(/C=C2/SC(=S)N(CCC(=O)Nc3cccnc3)C2=O)cc1
EC50 [13]: > 300 µM (inconclusive) | EC50 [14]: 12.8 µM (active) | EC50 (BJ [15]): 2.88 µM (inconclusive) | EC50 (BJ [16]): > 75 µM (inconclusive) | IC50 [10]: > 80 µM (inactive) | EC50 [17]: 141 µM (active) | EC50 (BJ [18]): > 66.7 µM (inactive) | EC50 (BJ [19]): > 150 µM (inconclusive)

Cc1[nH]c2ccccc2c1C(O)CN1CCN(c2cccc(C(F)(F)F)c2)CC1 (stereo not given)
EC50 [5]: 6.67 µM (active) | EC50 [6]: 7.14 µM (active)

Cc1cc(C)cc(C(=O)n2cnnc2N)c1
IC50 (Procathepsin L): > 59.6 µM (not active) | IC50 (Aspartyl aminopeptidase): 2.89 µM (active)
